The record followed here is patent US20020046680A1, “Methine compound, a recording liquid for ink jet, and an ink jet recording method” (priority 2000, published 2002).

What all share (format): physicochemical
The nature of series [1]: Ozone gas resistance of recorded image (percentage of colorant remaining). The note with it: ozone gas 0.5±0.1 ppm, 7 days, room temperature, dark, percentage of colorant remaining at reflection densities 1, 1.5 and 2.0.
Experimental: Regarding ozone gas resistance, the photo glossy papers on which the above-described images were formed were stood alone for 7 days in a box having an ozone gas concentration of 0.5±0.1 ppm in which were set at room temperature and in a dark room, and image densities before and after storage under ozone gas atmosphere were measured by using a reflection densitometer (X-Rite310TR), and evaluated in terms of the percentage of colorant remaining. The fore-mentioned reflection density was measured at three points which were 1, 1.5 and 2.0. The ozone gas concentration in the box was measured using an ozone gas monitor manufactured by APPLICS (Model OZG-EM-01). The case in which the percentage of colorant remaining were 70% or more at any of the densities was evaluated as A, the case in which the percentage of colorant remaining was less than 70% at one or two points was evaluated as B, and the case in which the percentage of colorant remaining was less than 70% at all densities was evaluated as C. It was evaluated at three stages.
A short description of series [2]: Humidity and heat fastness of recorded image (percentage of colorant remaining). The following applies: 80° C., humidity of 70%, 7 days, percentage of colorant remaining at reflection densities 1, 1.5 and 2.0. The protocol: (§1) Images were respectively recorded on a photo glossy paper (Photo glossy paper EX, ink jet paper manufactured by Fuji Photo Film Co., Ltd.) by an ink jet printer (“PM-770C”, manufactured by Seiko Epson Co., Ltd.) using the obtained ink liquids 1 to 9. Hue, light fastness, humidity and heat fastness and ozone gas resistance of the obtained images were evaluated.
Further, regarding humidity and heat fastness, image densities before and after storage at a temperature of 80° C. and a humidity of 70% for 7 days were measured in the same manner, and evaluated in terms of the percentage of colorant remaining.
(§2) Reflection density was measured at three points which were 1, 1.5 and 2.0, and the case in which the percentage of colorant remaining were 90% or more at any of the three densities was evaluated as A, the case in which the percentage of colorant remaining was less than 90% at one or two points was evaluated as B, and the case in which the percentage of colorant remaining was less than 90% at all densities was evaluated as C.

Series [3] is described as follows: Light fastness of recorded image (xenon light, percentage of colorant remaining). The following applies: xenon light (85000 lux) for 7 days, percentage of colorant remaining at reflection densities 1, 1.5 and 2.0. The protocol: as §1
Regarding light fastness, an image-receiving material on which images were recorded was irradiated with xenon light (85000 lux) for 7 days using a weather meter (Atlas C. 165), the image densities before and after xenon irradiation were measured by using a reflection densitometer (X-Rite310TR), and the light fastness was evaluated in terms of the percentage of colorant remaining.
as §2

As to `Cc1ccc2[nH]c3cc4c(=O)c5cc(C)ccc5[nH]c4cc3c(=O)c2c1` [C. I. Pigment Red 122], the ozone resistance entry in series [1] was “A (the percentage of colorant remaining were 70% or more at any of the densities)”. The “Humidity and heat fastness” value in series [2] was “A (the percentage of colorant remaining were 90% or more at any of the three densities)”. Moreover, the Light fastness result in series [3] is “A (the percentage of colorant remaining were 90% or more at any of the three densities)”.
